Experimental data from ChEMBL document CHEMBL3877268, “Development of resveratrol-curcumin hybrids as potential therapeutic agents for inflammatory lung diseases” (Eur J Med Chem, 2017).
Each block holds one molecule with its values, some of them ahead of it. The source made the active and inactive calls. The rule behind the calls is not given here.

Assays:
[1] = Cytotoxicity against human HL-7702 cells assessed as viable cells at 10 uM measured after 24 hrs by MTT assay; format: toxicity, cell-based; settings: l02, 24 h
RAW264.7 [2] = assay: Anti-inflammatory activity in mouse RAW264.7 cells assessed as inhibition of LPS-induced IL-6 expression at […] pretreated for 30 mins followed by LPS challenge measured after 24 hrs by ELISA method; format: functional, cell-based
RAW264.7 [3] = assay: Anti-inflammatory activity in mouse RAW264.7 cells assessed as inhibition of LPS-induced TNF-alpha expression at […] pretreated for 30 mins followed by LPS challenge measured after 24 hrs by ELISA method; format: functional, cell-based
RAW264.7 [4] = assay: Anti-inflammatory activity in mouse RAW264.7 cells assessed as inhibition of LPS-induced IL-6 expression pretreated for 30 mins followed by LPS challenge measured after 24 hrs by ELISA method; format: functional, cell-based
[5] = Chemical stability of the compound in phosphate buffer at pH 7.4 at 20 uM measured every 5 mins for 25 mins by UV-visible absorption spectra analysis; format: physicochemical; settings: pH 7.4, 25 min
Mus musculus [6] = assay: Anti-inflammatory activity in LPS-induced C57BL/6 mouse acute lung injury model assessed as reduction in total protein concentration at 5 mg/kg, ig pretreated for 7 days followed LPS challenge measured after 6 hrs by BCA protein assay; format: functional, organism-based
Peritoneal macrophage [7] = assay: Anti-inflammatory activity in mouse peritoneal macrophage assessed as inhibition of LPS-induced IL-6 expression at 10 uM pretreated for 30 mins followed by LPS challenge measured after 6 hrs by q-PCR analysis; format: functional
Peritoneal macrophage [8] = assay: Anti-inflammatory activity in mouse peritoneal macrophage assessed as inhibition of LPS-induced IL-12 mRNA expression at 10 uM pretreated for 30 mins followed by LPS challenge measured after 6 hrs by q-PCR analysis; format: functional
Peritoneal macrophage [9] = assay: Anti-inflammatory activity in mouse peritoneal macrophage assessed as inhibition of LPS-induced IL-33 mRNA expression at 10 uM pretreated for 30 mins followed by LPS challenge measured after 6 hrs by q-PCR analysis; format: functional
Peritoneal macrophage [10] = assay: Anti-inflammatory activity in mouse peritoneal macrophage assessed as inhibition of LPS-induced TNF-alpha mRNA expression at 10 uM pretreated for 30 mins followed by LPS challenge measured after 6 hrs by q-PCR analysis; format: functional
Mus musculus [11] = assay: Anti-inflammatory activity in LPS-induced C57BL/6 mouse acute lung injury model assessed as reduction in total number of cells in bronchoalveolar lavage fluid at 5 mg/kg, ig pretreated for 7 days followed LPS challenge measured after 6 hrs by hemocytometer; format: functional, organism-based
Mus musculus [12] = assay: Anti-inflammatory activity in LPS-induced C57BL/6 mouse acute lung injury model assessed as reduction in number of neutrophils in bronchoalveolar lavage fluid at 5 mg/kg, ig pretreated for 7 days followed LPS challenge measured after 6 hrs by Wright-Giemsa staining based assay; format: functional, organism-based
Mus musculus [13] = assay: Anti-inflammatory activity in LPS-induced C57BL/6 mouse acute lung injury model assessed as reduction in lung wet/dry ratio at 5 mg/kg, ig pretreated for 7 days followed LPS challenge measured after 6 hrs; format: functional, organism-based
Mus musculus [14] = assay: Anti-inflammatory activity in LPS-induced C57BL/6 mouse acute lung injury model assessed as reduction in airspace inflammation in lung tissue at 5 mg/kg, ig pretreated for 7 days followed LPS challenge measured after 6 hrs by hematoxylin and eosin staining based light microscopy; format: functional, organism-based
Mus musculus [15] = assay: Anti-inflammatory activity in LPS-induced C57BL/6 mouse acute lung injury model assessed as reduction in TNF-alpha level in bronchoalveolar lavage fluid at 5 mg/kg, ig pretreated for 7 days followed LPS challenge measured after 6 hrs by ELISA method; format: functional, organism-based
Mus musculus [16] = assay: Anti-inflammatory activity in LPS-induced C57BL/6 mouse acute lung injury model assessed as reduction in TNF-alpha level in serum at 5 mg/kg, ig pretreated for 7 days followed LPS challenge measured after 6 hrs by ELISA method; format: functional, organism-based
Mus musculus [17] = assay: Anti-inflammatory activity in LPS-induced C57BL/6 mouse acute lung injury model assessed as reduction in IL-6 level in bronchoalveolar lavage fluid at 5 mg/kg, ig pretreated for 7 days followed LPS challenge measured after 6 hrs by ELISA method; format: functional, organism-based
Mus musculus [18] = assay: Anti-inflammatory activity in LPS-induced C57BL/6 mouse acute lung injury model assessed as reduction in IL-6 level in serum at 5 mg/kg, ig pretreated for 7 days followed LPS challenge measured after 6 hrs by ELISA method; format: functional, organism-based
Mus musculus [19] = assay: Anti-inflammatory activity in LPS-induced C57BL/6 mouse acute lung injury model assessed as reduction in CD68-positive macrophage level in lung tissue at 5 mg/kg, ig pretreated for 7 days followed LPS challenge measured after 6 hrs by […] light microscopy; format: functional, organism-based

Compound: COc1ccc(/C=C/c2cc(OC)cc(OC)c2/C=C/C(=O)/C=C/c2ccc(O)c(Br)c2)cc1
- Activity [1]: Non-Toxic

Compound: COc1ccc(/C=C/c2cc(OC)cc(OC)c2/C=C/C(=O)/C=C/c2ccccc2Cl)cc1
- Activity [1]: Non-Toxic

Compound: COc1ccc(/C=C/c2cc(OC)cc(OC)c2/C=C/C(=O)/C=C/c2ccc(N3CCN(C)CC3)cc2)cc1
- Activity [1]: Non-Toxic

Compound: COc1ccc(/C=C/c2cc(OC)cc(OC)c2/C=C/C(=O)/C=C/c2cc(C(F)(F)F)ccc2C(F)(F)F)cc1
- Activity [1]: Non-Toxic

- IC50 (RAW264.7 [4]): 4.33 µM
- Stability [5]: Unstable
Compound: COc1ccc(/C=C/c2cc(OC)cc(OC)c2/C=C/C(=O)/C=C/c2ccc(C)s2)cc1
- inhibition (RAW264.7 [2]): Active
- inhibition (RAW264.7 [3]): Active
- inhibition (RAW264.7 [4]): Dose-dependent effect
- Activity [1]: Non-Toxic

Compound: COc1ccc(/C=C/c2cc(OC)cc(OC)c2/C=C/C(=O)/C=C/c2ccc(OC(C)(C)C)cc2)cc1
- Activity [1]: Non-Toxic

- IC50 (RAW264.7 [4]): 2.15 µM
- Stability [5]: Stable
Compound: COc1ccc(/C=C/c2cc(OC)cc(OC)c2/C=C/C(=O)/C=C/c2ccc(OCCCN(C)C)cc2)cc1
- inhibition (RAW264.7 [2]): Active
- inhibition (RAW264.7 [3]): Active
- inhibition (RAW264.7 [4]): Dose-dependent effect
- Activity [1]: Non-Toxic

- IC50 (RAW264.7 [4]): 3.03 µM
- Stability [5]: Stable
Compound: COc1ccc(/C=C/c2cc(OC)cc(OC)c2/C=C/C(=O)/C=C/c2ccc(OC)cc2OC)cc1
- inhibition (RAW264.7 [2]): Active
- inhibition (RAW264.7 [3]): Active
- inhibition (RAW264.7 [4]): Dose-dependent effect
- Activity [1]: Non-Toxic

Compound: C=CCOc1ccc(/C=C/C(=O)/C=C/c2c(/C=C/c3ccc(OC)cc3)cc(OC)cc2OC)cc1
- Activity [1]: Non-Toxic

Compound: COc1ccc(/C=C/c2cc(OC)cc(OC)c2/C=C/C(=O)/C=C/c2ccccc2Br)cc1
- Activity [1]: Non-Toxic

Compound: COc1ccc(/C=C/c2cc(OC)cc(OC)c2/C=C/C(=O)/C=C/c2cccc3ccccc23)cc1
- Activity [1]: Non-Toxic

Compound: COc1ccc(/C=C/c2cc(OC)cc(OC)c2/C=C/C(=O)/C=C/c2ccc(C(F)(F)F)cc2)cc1
- Activity [1]: Non-Toxic

Compound: COc1ccc(/C=C/c2cc(OC)cc(OC)c2/C=C/C(=O)/C=C/c2ccc3c(c2OC)OCO3)cc1
- Activity [1]: Non-Toxic

Compound: CCN(CC)c1ccc(/C=C/C(=O)/C=C/c2c(/C=C/c3ccc(OC)cc3)cc(OC)cc2OC)cc1
- inhibition (RAW264.7 [2]): Active
- Activity [1]: Non-Toxic

- IC50 (RAW264.7 [4]): 2.48 µM
- Stability [5]: Stable
Compound: COc1ccc(/C=C/c2cc(OC)cc(OC)c2/C=C/C(=O)/C=C/c2cccc(OC)c2OC)cc1
- Activity (Mus musculus [6]): Active
- inhibition (RAW264.7 [2]): Active
- inhibition (RAW264.7 [3]): Active
- inhibition (RAW264.7 [4]): Dose-dependent effect
- Activity [1]: Non-Toxic
- inhibition (Peritoneal macrophage [7]): Active
- inhibition (Peritoneal macrophage [8]): Active
- inhibition (Peritoneal macrophage [9]): Active
- inhibition (Peritoneal macrophage [10]): Active
- Activity (Mus musculus [11]): Active
- Activity (Mus musculus [12]): Active
- Activity (Mus musculus [13]): Active
- Activity (Mus musculus [14]): Active
- Activity (Mus musculus [15]): Active
- Activity (Mus musculus [16]): Active
- Activity (Mus musculus [17]): Active
- Activity (Mus musculus [18]): Active
- Activity (Mus musculus [19]): Active

Compound: COc1ccc(/C=C/c2cc(OC)cc(OC)c2/C=C/C(=O)/C=C/c2ccc(C(C)(C)C)cc2)cc1
- Activity [1]: Non-Toxic

Compound: COc1ccc(/C=C/c2cc(OC)cc(OC)c2/C=C/C(=O)/C=C/c2ccccc2C(F)(F)F)cc1
- inhibition (RAW264.7 [2]): Active
- inhibition (RAW264.7 [3]): Active
- Activity [1]: Non-Toxic

Compound: COc1ccc(/C=C/c2cc(OC)cc(OC)c2/C=C/C(=O)/C=C/c2ccc(C)cc2C)cc1
- Activity [1]: Non-Toxic

Compound: COc1ccc(/C=C/c2cc(OC)cc(OC)c2/C=C/C(=O)/C=C/c2c(OC)cc(OC)cc2OC)cc1
- inhibition (RAW264.7 [2]): Active
- Activity [1]: Non-Toxic

Compound: CCOc1ccc(/C=C/C(=O)/C=C/c2c(/C=C/c3ccc(OC)cc3)cc(OC)cc2OC)cc1
- Activity [1]: Non-Toxic

- Stability [5]: Unstable
Compound: Oc1ccc(/C=C/c2cc(O)cc(O)c2)cc1 [RESVERATROL]

Compound: COc1ccc(/C=C/c2cc(OC)cc(OC)c2/C=C/C(=O)/C=C/c2ccccc2OC)cc1
- Activity [1]: Non-Toxic

Compound: COc1ccc(/C=C/c2cc(OC)cc(OC)c2/C=C/C(=O)/C=C/c2ccc(OC)c(Br)c2)cc1
- inhibition (RAW264.7 [2]): Active
- Activity [1]: Non-Toxic

Compound: COc1ccc(/C=C/c2cc(OC)cc(OC)c2/C=C/C(=O)/C=C/c2ccc(O)c(OC)c2)cc1
- Activity [1]: Non-Toxic

- IC50 (RAW264.7 [4]): 3.9 µM
- Stability [5]: Unstable
Compound: COc1ccc(/C=C/c2cc(OC)cc(OC)c2/C=C/C(=O)/C=C/c2ccccc2)cc1
- inhibition (RAW264.7 [2]): Active
- inhibition (RAW264.7 [3]): Active
- inhibition (RAW264.7 [4]): Dose-dependent effect
- Activity [1]: Non-Toxic

Compound: COc1ccc(/C=C/c2cc(OC)cc(OC)c2/C=C/C(=O)/C=C/c2cccc(C(F)(F)F)c2)cc1
- inhibition (RAW264.7 [2]): Active
- Activity [1]: Non-Toxic
